# Test results: PubChem BioAssay AID270 (DTP/NCI, 2004)
# Several values for one entry are separate records, joined by “and”; a condition that tells them apart may be missing. Identical values can stand only once. Records with an inconclusive call do not appear.
# System: BDF1 mice, s.c. Lewis lung carcinoma, T/C %
# Assay: NCI In Vivo Anticancer Drug Screen. Data for tumor model Lewis Lung Carcinoma (subcutaneous) in B6D2F1 (BDF1) mice
# How it was run: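 Tumor-bearing mice were treated with test compound, and either survival or tumor size was recorded. Values are the treated-group measurement divided by that of the vehicle-treated control group.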
# [1] = endpoint: median survival time, dose: 25.0 mg/kg/injection, schedule: Q01DX009 (ip), vehicle: saline with Tween-80, higher = longer survival
# [2] = endpoint: mean tumor weight, dose: 25.0 mg/kg/injection, schedule: Q01DX011 (ip), vehicle: saline, higher = larger tumour
# [3] = endpoint: mean tumor weight, dose: 50.0 mg/kg/injection, schedule: Q01DX011 (ip), vehicle: saline, higher = larger tumour
structure (smiles),measurement,setting,value
c1ccc(CSc2ncnc3nc[nH]c23)nc1,T/C,"endpoint: mean tumor weight, dose: 25.0 mg/kg/injection, schedule: Q01DX011 (ip), vehicle: other, higher = larger tumour",59 % of control
same,T/C,"endpoint: mean tumor weight, dose: 50.0 mg/kg/injection, schedule: Q01DX011 (ip), vehicle: other, higher = larger tumour",109 % of control
same,T/C,"endpoint: mean tumor weight, dose: 100.0 mg/kg/injection, schedule: Q01DX011 (ip), vehicle: other, higher = larger tumour",63 % of control
CNC(=S)N/N=C/c1ccc([N+](=O)[O-])s1,T/C,[1],121 % of control
CCN(CC)Cc1c(O)ccc2c3c(c(=O)oc12)CCCC3,T/C,"endpoint: median survival time, dose: 29.0 mg/kg/injection, schedule: Q01DX009 (ip), vehicle: Klucel (hydroxypropylcellulose) (HPC), higher = longer survival",99 % of control
same,T/C,"endpoint: median survival time, dose: 58.0 mg/kg/injection, schedule: Q01DX009 (ip), vehicle: Klucel (hydroxypropylcellulose) (HPC), higher = longer survival",94 % of control
CC(C)=CC1C(C(=O)OCc2ccc(C)cc2C)C1(C)C (centres undefined),T/C,"endpoint: median survival time, dose: 12.5 mg/kg/injection, schedule: Q01DX009 (ip), vehicle: saline with Tween-80, higher = longer survival",93 % of control
same,T/C,[1],104 % of control
same,T/C,"endpoint: median survival time, dose: 50.0 mg/kg/injection, schedule: Q01DX009 (ip), vehicle: saline with Tween-80, higher = longer survival",89 % of control
same,T/C,"endpoint: median survival time, dose: 100.0 mg/kg/injection, schedule: Q01DX009 (ip), vehicle: saline with Tween-80, higher = longer survival",95 % of control
same,T/C,"endpoint: median survival time, dose: 200.0 mg/kg/injection, schedule: Q01DX009 (ip), vehicle: saline with Tween-80, higher = longer survival",98 % of control
CN(C)CC/C=C1\c2ccccc2Sc2ccc(Cl)cc21,T/C,"endpoint: median survival time, dose: 1.87 mg/kg/injection, schedule: Q01DX001 (ip), vehicle: Klucel (hydroxypropylcellulose) (HPC), higher = longer survival",102 % of control
same,T/C,"endpoint: median survival time, dose: 3.75 mg/kg/injection, schedule: Q01DX001 (ip), vehicle: Klucel (hydroxypropylcellulose) (HPC), higher = longer survival",109 % of control
same,T/C,"endpoint: median survival time, dose: 7.5 mg/kg/injection, schedule: Q01DX001 (ip), vehicle: Klucel (hydroxypropylcellulose) (HPC), higher = longer survival",88 % of control
same,T/C,"endpoint: median survival time, dose: 15.0 mg/kg/injection, schedule: Q01DX001 (ip), vehicle: Klucel (hydroxypropylcellulose) (HPC), higher = longer survival",102 % of control
CN(/N=N/N(C)c1ccccc1)c1ccccc1,T/C,"endpoint: mean tumor weight, dose: 15.6 mg/kg/injection, schedule: Q01DX011 (ip), vehicle: carboxymethylcellulose (CMC), higher = larger tumour",77 % of control
same,T/C,"endpoint: mean tumor weight, dose: 31.3 mg/kg/injection, schedule: Q01DX011 (ip), vehicle: carboxymethylcellulose (CMC), higher = larger tumour",66 % of control
same,T/C,"endpoint: mean tumor weight, dose: 62.5 mg/kg/injection, schedule: Q01DX011 (ip), vehicle: carboxymethylcellulose (CMC), higher = larger tumour",52 % of control
same,T/C,"endpoint: mean tumor weight, dose: 125.0 mg/kg/injection, schedule: Q01DX011 (ip), vehicle: carboxymethylcellulose (CMC), higher = larger tumour",48 % of control
CCOC(=O)C1=NNC(=O)C1,T/C,"endpoint: mean tumor weight, dose: 222.0 mg/kg/injection, schedule: Q01DX011 (ip), vehicle: other, higher = larger tumour",119 % of control
same,T/C,"endpoint: mean tumor weight, dose: 333.0 mg/kg/injection, schedule: Q01DX011 (ip), vehicle: other, higher = larger tumour",118 % of control
same,T/C,"endpoint: mean tumor weight, dose: 500.0 mg/kg/injection, schedule: Q01DX011 (ip), vehicle: other, higher = larger tumour",75 % of control
same,T/C,"endpoint: mean tumor weight, dose: 750.0 mg/kg/injection, schedule: Q01DX011 (ip), vehicle: other, higher = larger tumour",108 % of control
Oc1ccc(O)c(/C=N/NC(=S)NC2CC3CC2C2C=CCC32)c1 (centres undefined),T/C,"endpoint: median survival time, dose: 25.0 mg/kg/injection, schedule: Q01DX009 (ip), vehicle: olive oil, sesame oil, peanut oil, higher = longer survival",87 % of control
same,T/C,"endpoint: median survival time, dose: 50.0 mg/kg/injection, schedule: Q01DX009 (ip), vehicle: olive oil, sesame oil, peanut oil, higher = longer survival",86 % of control
O=NN(CCCl)C(=O)NC(CCC(=O)O)C(=O)O (centres undefined),T/C,"endpoint: median survival time, dose: 81.0 mg/kg/injection, schedule: Q01DX001 (ip), vehicle: saline with Tween-80, higher = longer survival",99 % of control
same,T/C,"endpoint: median survival time, dose: 122.0 mg/kg/injection, schedule: Q01DX001 (ip), vehicle: saline with Tween-80, higher = longer survival",95 % of control
same,T/C,"endpoint: median survival time, dose: 183.0 mg/kg/injection, schedule: Q01DX001 (ip), vehicle: saline with Tween-80, higher = longer survival",157 % of control
same,T/C,"endpoint: median survival time, dose: 184.0 mg/kg/injection, schedule: Q01DX001 (ip), vehicle: saline with Tween-80, higher = longer survival",117 % of control
same,T/C,"endpoint: median survival time, dose: 275.0 mg/kg/injection, schedule: Q01DX001 (ip), vehicle: saline with Tween-80, higher = longer survival",107 % of control
CCCCCC[C@@H](O)C/C=C\CCCCCCCC(=O)O,T/C,[2],104 % of control
same,T/C,[3],77 % of control
same,T/C,"endpoint: mean tumor weight, dose: 100.0 mg/kg/injection, schedule: Q01DX011 (ip), vehicle: saline, higher = larger tumour",59 % of control
CCC[CH2][Sn]1([CH2]CCC)[O]C(=O)C[S]1,T/C,"endpoint: mean tumor weight, dose: 4.0 mg/kg/injection, schedule: Q01DX011 (ip), vehicle: saline, higher = larger tumour",88 % of control
same,T/C,"endpoint: mean tumor weight, dose: 8.0 mg/kg/injection, schedule: Q01DX011 (ip), vehicle: saline, higher = larger tumour",50 % of control
same,T/C,"endpoint: mean tumor weight, dose: 16.0 mg/kg/injection, schedule: Q01DX011 (ip), vehicle: saline, higher = larger tumour",100 % of control
CC1CCCCN1 (centres undefined),T/C,"endpoint: mean tumor weight, dose: 12.5 mg/kg/injection, schedule: Q01DX011 (ip), vehicle: saline, higher = larger tumour",95 % of control
same,T/C,[2],85 % of control
same,T/C,[3],80 % of control
c1ccc([As+](c2ccccc2)(c2ccccc2)c2ccccc2)cc1,T/C,"endpoint: median survival time, dose: 1.87 mg/kg/injection, schedule: Q01DX009 (ip), vehicle: Klucel (hydroxypropylcellulose) (HPC), higher = longer survival",97 % of control
same,T/C,"endpoint: median survival time, dose: 3.75 mg/kg/injection, schedule: Q01DX009 (ip), vehicle: Klucel (hydroxypropylcellulose) (HPC), higher = longer survival",95 % of control
NC(=O)c1[nH]nc(C2OC(CO)C(O)C2O)c1O (centres undefined),T/C,"endpoint: median survival time, dose: 1.73 mg/kg/injection, schedule: Q04DX003 (iv), vehicle: saline, higher = longer survival",191 % of control
same,T/C,"endpoint: median survival time, dose: 5.2 mg/kg/injection, schedule: Q04DX003 (iv), vehicle: saline, higher = longer survival",117 % of control
same,T/C,"endpoint: median survival time, dose: 15.6 mg/kg/injection, schedule: Q04DX003 (iv), vehicle: saline, higher = longer survival",69 % of control
C[C@]12C=CC(=O)C=C1CC[C@@H]1[C@@H]2[C@@H](O)C[C@@]2(C)[C@H]1CC[C@]2(O)C(=O)COC(=O)C1CCCC1,T/C,"endpoint: mean tumor weight, dose: 9.0 mg/kg/injection, schedule: Q01DX011 (sc), vehicle: steriod suspending solution, higher = larger tumour",68 % of control
same,T/C,"endpoint: mean tumor weight, dose: 13.0 mg/kg/injection, schedule: Q01DX011 (sc), vehicle: steriod suspending solution, higher = larger tumour",51 % of control
same,T/C,"endpoint: mean tumor weight, dose: 20.0 mg/kg/injection, schedule: Q01DX011 (sc), vehicle: steriod suspending solution, higher = larger tumour",77 % of control
same,T/C,"endpoint: mean tumor weight, dose: 30.0 mg/kg/injection, schedule: Q01DX011 (sc), vehicle: steriod suspending solution, higher = larger tumour",52 % of control
CC(=O)O[C@@H]1[C@H]2O[C@H]2[C@H]2O[C@@]2(COC(=O)c2ccccc2)[C@H]1OC(C)=O,T/C,"endpoint: mean tumor weight, dose: 150.0 mg/kg/injection, schedule: Q01DX011 (ip), vehicle: carboxymethylcellulose (CMC), higher = larger tumour",24 % of control
same,T/C,"endpoint: mean tumor weight, dose: 200.0 mg/kg/injection, schedule: Q01DX011 (ip), vehicle: carboxymethylcellulose (CMC), higher = larger tumour",307 % of control
same,T/C,"endpoint: mean tumor weight, dose: 300.0 mg/kg/injection, schedule: Q01DX011 (ip), vehicle: carboxymethylcellulose (CMC), higher = larger tumour",119 % of control
same,T/C,"endpoint: median survival time, dose: 3.12 mg/kg/injection, schedule: Q01DX009 (ip), vehicle: gum acacia, higher = longer survival",95 % of control
same,T/C,"endpoint: median survival time, dose: 6.25 mg/kg/injection, schedule: Q01DX009 (ip), vehicle: gum acacia, higher = longer survival",92 % of control
same,T/C,"endpoint: median survival time, dose: 12.5 mg/kg/injection, schedule: Q01DX009 (ip), vehicle: gum acacia, higher = longer survival",115 % of control
same,T/C,"endpoint: median survival time, dose: 25.0 mg/kg/injection, schedule: Q01DX009 (ip), vehicle: gum acacia, higher = longer survival",87 % of control
COCC(O)Cn1ccnc1[N+](=O)[O-] (centres undefined),T/C,"endpoint: median survival time, dose: 500.0 mg/kg/injection, schedule: Q01DX001 (ip), vehicle: saline, higher = longer survival",81 % of control
same,T/C,"endpoint: median survival time, dose: 600.0 mg/kg/injection, schedule: Q01DX001 (ip), vehicle: saline, higher = longer survival",77 % of control and 93 % of control
same,T/C,"endpoint: median survival time, dose: 1000.0 mg/kg/injection, schedule: Q01DX001 (ip), vehicle: saline, higher = longer survival",74 % of control and 91 % of control and 94 % of control
CCCCn1cnc2c(=S)nc(N)[nH]c21,T/C,"endpoint: mean tumor weight, dose: 1.0 mg/kg/injection, schedule: Q01DX011 (ip), vehicle: other, higher = larger tumour",73 % of control
same,T/C,"endpoint: mean tumor weight, dose: 2.0 mg/kg/injection, schedule: Q01DX011 (ip), vehicle: other, higher = larger tumour",59 % of control
same,T/C,"endpoint: mean tumor weight, dose: 4.0 mg/kg/injection, schedule: Q01DX011 (ip), vehicle: other, higher = larger tumour",39 % of control
same,T/C,"endpoint: mean tumor weight, dose: 8.0 mg/kg/injection, schedule: Q01DX011 (ip), vehicle: other, higher = larger tumour",58 % of control and 63 % of control
same,T/C,"endpoint: mean tumor weight, dose: 16.0 mg/kg/injection, schedule: Q01DX011 (ip), vehicle: other, higher = larger tumour",61 % of control
same,T/C,"endpoint: mean tumor weight, dose: 32.0 mg/kg/injection, schedule: Q01DX011 (ip), vehicle: other, higher = larger tumour",34 % of control
C=CCNc1ccc(C)cc1,T/C,"endpoint: mean tumor weight, dose: 12.5 mg/kg/injection, schedule: Q01DX011 (ip), vehicle: carboxymethylcellulose (CMC), higher = larger tumour",92 % of control
same,T/C,"endpoint: mean tumor weight, dose: 25.0 mg/kg/injection, schedule: Q01DX011 (ip), vehicle: carboxymethylcellulose (CMC), higher = larger tumour",93 % of control
same,T/C,"endpoint: mean tumor weight, dose: 50.0 mg/kg/injection, schedule: Q01DX011 (ip), vehicle: carboxymethylcellulose (CMC), higher = larger tumour",37 % of control
same,T/C,"endpoint: mean tumor weight, dose: 100.0 mg/kg/injection, schedule: Q01DX011 (ip), vehicle: carboxymethylcellulose (CMC), higher = larger tumour",5 % of control
O=[N+]([O-])c1ccc(CSc2ncnc3c2ncn3C2OC(CO)C(O)C2O)cc1 (centres undefined),T/C,"endpoint: median survival time, dose: 0.3 mg/kg/injection, schedule: Q01DX010 (ip), vehicle: saline with Tween-80, higher = longer survival",93 % of control
same,T/C,"endpoint: median survival time, dose: 3.0 mg/kg/injection, schedule: Q01DX010 (ip), vehicle: saline with Tween-80, higher = longer survival",97 % of control
same,T/C,"endpoint: median survival time, dose: 30.0 mg/kg/injection, schedule: Q01DX010 (ip), vehicle: saline with Tween-80, higher = longer survival",106 % of control
CC1CCC2C(C)C3C(CC4C5CC=C6CC(OC7OC(CO)C(O)C(OC8OC(CO)C(O)C(O)C8O)C7OC7OC(C)C(O)C(O)C7O)CCC6(C)C5CCC43C)N2C1 (centres undefined),T/C,"endpoint: mean tumor weight, dose: 54.0 mg/kg/injection, schedule: Q01DX011 (sc), vehicle: steriod suspending solution, higher = larger tumour",112 % of control
same,T/C,"endpoint: mean tumor weight, dose: 80.0 mg/kg/injection, schedule: Q01DX011 (sc), vehicle: steriod suspending solution, higher = larger tumour",69 % of control
same,T/C,"endpoint: mean tumor weight, dose: 120.0 mg/kg/injection, schedule: Q01DX011 (sc), vehicle: steriod suspending solution, higher = larger tumour",76 % of control
